Source: patent US20230285402A1, “Compositions and Methods of Modulating Short-Chain Dehydrogenase Activity” (BOARD OF REGENTS OF THE UNIVERSITY OF TEXAS SYSTEM, priority 2013, published 2023)
Where two headings read alike, the source gives them in different places.

Tests used:
recombinant 15-PGDH [1] = biological target: T1, recombinant 15-PGDH (Homo sapiens (Human), UniProt P15428); assay: Inhibition of enzymatic activity of recombinant 15-PGDH in vitro (NADH generation); format: biochemical
bone marrow = assay: Hematopoietic colonies from wild-type mouse bone marrow treated ex vivo; format: cell-based; conditions: 1 uM, ex vivo on ice 2 hours
Description: Treated marrow is again then plated into methylcellulose for counting of hematopoietic colonies.

[2] = test system: 15-PGDH-luciferase fusion reporter in V9m, LS174T and V503 cells; assay: 15-PGDH-luciferase fusion reporter induction in colon cancer cell lines; format: cell-based; conditions: for luciferase activity, in words: V9m, LS174T, V503; for Concentration for Full Cell Line Reporter Induction: maximal induction of reporter
A549 cells [3] = assay: PGE2 in medium of IL1-beta stimulated A549 cells; format: cell-based; conditions: for rank of PGE2 level in medium: 100 nM drug; for induction of PGE2 compared with SW033291: 4 nM to 2500 nM
15-PGDH mRNA = 15-PGDH mRNA by real-time PCR in colon cancer cell lines; format: cell-based; conditions: treated colon cancer cell lines
Description: In these studies parental cell lines (not containing the 15-PGDH-luciferase reporter) are employed.

recombinant 15-PGDH [4] = biological target: T1, recombinant 15-PGDH; assay: Melting temperature shift of recombinant 15-PGDH (SYPRO Orange); format: binding; conditions: for melting temperature: 20 uM compound
A549 cells [5] = assay: Cellular toxicity by CellTiter-Glo; format: cell-based; conditions: concentrations of up to 10 μM; 24 hours
Method: FIGS. 38(A-C) show assays of cellular toxicity on A549 cells at 24 hours of 15-PGDH inhibitors as assayed by CellTiter-Glo measurement.

[6] = test system: cell numbers in a cell culture assay; assay: Toxicity in cell culture assay (decrease of cell numbers); format: cell-based; conditions: concentration needed to decrease cell numbers
Method: Time to inhibition refers to the time needed to inhibit the generation of NADH by 15-PGDH from the moment with drug is added into the reaction mix. Delta Tm refers to the shift in melting temperature of recombinant 15-PGDH in the presence of drug (with cofactor NADH also present). Concentration of Full Cell Line Reporter Induction refers to the concentration of drug that needs to be added to reporter cell line to achieve maximal induction of the 15-PGDH-luciferase gene fusion reporter cassette, as measured by luciferase assays. Hepatocyte stability refers to the half-life of compound in the presence of hepatocytes in culture. Toxicity refers to the concentration of compound needed to decrease cell numbers in a cell culture assay.

mice = assay: Homing of CFSE labeled donor bone marrow cells in lethally irradiated mice; format: in vivo, mouse
Method: Drugs are administered following radiation, following the transplant, and again at 8 hours after the transplant.

[7] = read-out: Enzyme Inhibitor IC50 (nM) at 5 nM 15-PGDH, 5 nM recombinant human 15-PGDH

T1 sequence (P15428 whole entry): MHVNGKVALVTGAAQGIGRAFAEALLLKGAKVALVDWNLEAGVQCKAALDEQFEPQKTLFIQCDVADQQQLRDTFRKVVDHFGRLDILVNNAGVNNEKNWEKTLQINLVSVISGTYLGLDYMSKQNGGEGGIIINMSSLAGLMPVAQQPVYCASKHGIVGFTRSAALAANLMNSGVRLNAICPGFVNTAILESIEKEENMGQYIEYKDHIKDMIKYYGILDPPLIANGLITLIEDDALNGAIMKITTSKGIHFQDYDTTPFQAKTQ

## 4-((3-amino-4-phenyl-6-(thiophen-2-yl)thieno[2,3-b]pyridin-2-yl)sulfonyl)butyl acetate [SW209128]
Recombinant 15-PGDH [1]; [7]
  IC50: 4910 nM

## CCCCC[C@H](O)/C=C/[C@H]1[C@H](O)CC(=O)[C@@H]1C/C=C\CCCC(=O)O [PGE2]
Bone marrow
  increase in colonies compared with SW033291 treated marrow, in words: lesser increase

## CS(=O)(=O)c1sc2nc(-c3cccs3)cc(-c3ccccc3)c2c1N [SW033290]
Recombinant 15-PGDH [1]; [7]
  IC50: 525 nM

## COc1ccc(OC)c(N(CC(=O)Nc2cccnc2)S(=O)(=O)c2ccccc2)c1 [SW054384]
[2]
  concentration of maximum activity: 6.25 µM
  luciferase activity, in words: increase luciferase activity
A549 cells [3]; compound from 24 hours before IL1-beta, maintained next 26 hours
  PGE2 level: lower level of PGE2
15-PGDH mRNA
  15-PGDH mRNA levels: do not in general alter 15-PGDH mRNA levels
Recombinant 15-PGDH [4]; melting temperature shift, cofactor 10 μM and 100 μM
  direct binding to 15-PGDH, in words: cannot be demonstrated to bind

## O=C(c1ccc2nc(-c3ccccc3)c(-c3ccccc3)nc2c1)N1CCCCC1 [SW145753]
[2]
  luciferase activity, in words: increase luciferase activity
A549 cells [3]; IL1-beta 23 hours, compound for last 5 hours
  15-PGDH activity in cells as reflected in PGE2 levels: clear inhibition of 15-PGDH activity
15-PGDH mRNA
  15-PGDH mRNA levels: do not in general alter 15-PGDH mRNA levels

## CCCC[S+]([O-])c1sc2nc(-c3cccs3)ccc2c1N (stereo not drawn) [SW206980]
A549 cells [5]
  effect on CellTitre-Glo levels: No effect
A549 cells [3]; IL-1β 16 h, then compound 8 h
  highest PGE2 level in medium: 2500 pg/mL
[6]
  Toxicity: >7.5 µM

## CCCC[S+]([O-])c1sc2nc(-c3nccs3)ccc2c1N (stereo not drawn) [SW206992]
A549 cells [5]
  effect on CellTitre-Glo levels: No effect
[2]; exposure for 24 hours
  concentration needed to induce maximal reporter induction: ≥ 1000 nM
[2]
  Concentration for Full Cell Line Reporter Induction: >1 µM
A549 cells [3]; IL-1β 16 h, then compound 8 h
  concentration at which maximal effect on PGE2 is attained: 2.5 µM
  highest PGE2 level in medium: 2100 pg/mL
[6]
  Toxicity: >7.5 µM
Recombinant 15-PGDH [1]; Table 2 summary, read-out: IC50
  IC50: 1.41 nM
Recombinant 15-PGDH [1]; [7]
  IC50: 1.41 nM
Recombinant 15-PGDH [1]; time to inhibit NADH generation after drug is added, 10 nM
  Time to inhibition (10 nM): ~2 min
Recombinant 15-PGDH [4]
  Δ Tm (NADH): 19 °C
Recombinant 15-PGDH [4]; 10 μM 15-PGDH, NAD(+) 100 μM, control 49
  melting temperature: 59 degrees
Recombinant 15-PGDH [4]; 10 uM 15-PGDH, NADH 100 uM, control 55
  melting temperature: 68.5 degrees

## CCCC[S+]([O-])c1sc2nc(-c3ccccc3)nc(-c3ccccc3)c2c1N (stereo not drawn) [SW208065]
[2]
  Concentration for Full Cell Line Reporter Induction: ~0.1 µM
Recombinant 15-PGDH [4]; shift in melting temperature, cofactor NADH present
  Δ Tm (NADH): 13 °C

## CCCC[S+]([O-])c1sc2nc(-c3nccs3)cc(-c3ccccc3)c2c1N (stereo not drawn) [SW208066]
A549 cells [3]
  rank of PGE2 level in medium: highest levels of PGE2

## CCCC[S+]([O-])c1sc2nc(-c3cccs3)nc(-c3ccccc3)c2c1N (stereo not drawn) [SW208067]
A549 cells [3]
  rank of PGE2 level in medium: highest levels of PGE2

## CCCCSc1ncccc1N [SW208068]
Recombinant 15-PGDH [1]; [7]
  IC50: > 7500 nM

## CCCC[S+]([O-])c1ncccc1N (stereo not drawn) [SW208070]
Recombinant 15-PGDH [1]; [7]
  IC50: > 7500 nM

## CCCC[S+]([O-])c1sc2nc(-c3cccs3)cc(-c3ccc(Br)cc3)c2c1N (stereo not drawn) [SW208199]
Recombinant 15-PGDH [1]; [7]
  IC50: 2.9 nM

## CCCCSc1cc2ccc(-c3ccccc3)nc2s1 [SW208430, 2-(butylthio)-6-phenylthieno[2,3-b]pyridine]
Recombinant 15-PGDH [1]; [7]
  IC50: > 2500 nM

## CCCC[S+]([O-])c1cc2ccc(-c3ccccc3)nc2s1 (stereo not drawn) [SW208432, 2-(butylsulfinyl)-6-phenylthieno[2,3-b]pyridine]
Recombinant 15-PGDH [1]; [7]
  IC50: 3.53 nM

## CCCCS(=O)(=O)c1cc2ccc(-c3ccccc3)nc2s1 [SW208434]
Recombinant 15-PGDH [1]; [7]
  IC50: > 2500 nM

## CCCCSc1sc2nc(-c3ccccc3)ccc2c1N [SW208435, 2-(butylthio)-6-phenylthieno[2,3-b]pyridin-3-amine]
Recombinant 15-PGDH [1]; [7]
  IC50: > 2500 nM

## CCCC[S+]([O-])c1sc2nc(-c3cccs3)cc(C)c2c1N (stereo not drawn) [SW208488, 2-(butylsulfinyl)-4-methyl-6-(thiophen-2-yl)thieno[2,3-b]pyridin-3-amine]
Recombinant 15-PGDH [1]; [7]
  IC50: 1.43 nM

## CCCCSc1nc2nc(-c3cccs3)ccc2[nH]1 [SW208494, 2-(butylthio)-5-(thiophen-2-yl)-3H-imidazo[4,5-b]pyridine]
Recombinant 15-PGDH [1]; [7]
  IC50: > 7500 nM

## CC(C)[S+]([O-])c1sc2nc(-c3nccs3)cc(-c3cccnc3)c2c1N (stereo not drawn) [SW208778]
Recombinant 15-PGDH [1]; [7]
  IC50: 3.99 nM

## CCCC[S+]([O-])c1sc2nc(-c3nccs3)c(C(=O)OCC)c(-c3ccc(Br)cc3)c2c1N (stereo not drawn) [SW209123, Ethyl 3-amino-4-(4-bromophenyl)-2-(butylsulfinyl)-6-(thiazol-2-yl)thieno[2,3-b]pyridine-5-carboxylate]
Recombinant 15-PGDH [1]; [7]
  IC50: 40.8 nM

## CCCC[S+]([O-])c1sc2nc(-c3nccs3)cc(-c3nccs3)c2c1N (stereo not drawn) [SW209124, 2-(butylsulfinyl)-4,6-di(thiazol-2-yl)thieno[2,3-b]pyridin-3-amine]
A549 cells [3]
  induction of PGE2 compared with SW033291: increased activity relative to SW033291

## CCCC[S+]([O-])c1sc2nc(-c3nccs3)cc(-c3nccn3C)c2c1N (stereo not drawn) [SW209125, 2-(butylsulfinyl)-4-(1-methyl-1H-imidazol-2-yl)-6-(thiazol-2-yl)thieno[2,3-b]pyridin-3-amine]
A549 cells [3]
  induction of PGE2 compared with SW033291: increased activity relative to SW033291

## CC(=O)OCCCC[S+]([O-])c1sc2nc(-c3cccs3)cc(-c3ccccc3)c2c1N (stereo not drawn) [SW209129, 4-((3-amino-4-phenyl-6-(thiophen-2-yl)thieno[2,3-b]pyridin-2-yl)sulfinyl)butyl acetate]
Recombinant 15-PGDH [1]; [7]
  IC50: 41.5 nM

## Nc1c([S+]([O-])CCCCO)sc2nc(-c3cccs3)cc(-c3ccccc3)c12 (stereo not drawn) [SW209271, 4-((3-amino-4-phenyl-6-(thiophen-2-yl)thieno[2,3-b]pyridin-2-yl)sulfinyl)butan-1-ol]
Recombinant 15-PGDH [1]; [7]
  IC50: 34.2 nM

## CC(=O)OCCCS(=O)(=O)c1sc2nc(-c3cccs3)cc(-c3ccccc3)c2c1N [SW209272, 3-((3-amino-4-phenyl-6-(thiophen-2-yl)thieno[2,3-b]pyridin-2-yl)sulfonyl)propyl acetate]
Recombinant 15-PGDH [1]; [7]
  IC50: 530 nM

## CC(=O)OCCC[S+]([O-])c1sc2nc(-c3cccs3)cc(-c3ccccc3)c2c1N (stereo not drawn) [SW209273, 3-((3-amino-4-phenyl-6-(thiophen-2-yl)thieno[2,3-b]pyridin-2-yl)sulfinyl)propyl acetate]
Recombinant 15-PGDH [1]; [7]
  IC50: 21.6 nM

## CC(C)[S+]([O-])c1sc2nc(-c3nccs3)cc(-c3nccn3C)c2c1N (stereo not drawn) [SW209279, 2-(isopropylsulfinyl)-4-(1-methyl-1H-imidazol-2-yl)-6-(thiazol-2-yl)thieno[2,3-b]pyridin-3-amine]
Recombinant 15-PGDH [1]; [7]
  IC50: 4.18 nM

## CCC[S+]([O-])c1sc2nc(-c3nccs3)cc(-c3nccn3C)c2c1N (stereo not drawn) [SW209280, 4-(1-methyl-1H-imidazol-2-yl)-2-(propylsulfinyl)-6-(thiazol-2-yl)thieno[2,3-b]pyridin-3-amine]
Recombinant 15-PGDH [1]; [7]
  IC50: 3.73 nM

## Nc1c([S+]([O-])CCCCCl)sc2nc(-c3cccs3)cc(-c3ccccc3)c12 (stereo not drawn) [SW209329, 2-((4-chlorobutyl)sulfinyl)-4-phenyl-6-(thiophen-2-yl)thieno[2,3-b]pyridin-3-amine]
Recombinant 15-PGDH [1]; [7]
  IC50: 4.36 nM

## CCCCS(=O)(=O)c1sc2nc(-c3nccs3)cc(-c3ccc(CO)cc3)c2c1N [SW209333]
Recombinant 15-PGDH [1]; [7]
  IC50: > 2500 nM

## CCCC[S+]([O-])c1sc2nc(-c3nccs3)cc(-c3cnc(C)n3C)c2c1N (stereo not drawn) [SW209415, 2-(butylsulfinyl)-4-(1,2-dimethyl-1H-imidazol-5-yl)-6-(thiazol-2-yl)thieno[2,3-b]pyridin-3-amine]
mice; 10 mg/kg IP, FIG. 140
  increase of homed donor cells in recipient bone marrow: approximately 2.5 fold
Recombinant 15-PGDH [1]
  share of 15-PGDH inhibitory activity due to the (+) optical isomer: at least 98%

## CCCC[S+]([O-])CSc1nc(-c2nccs2)cc(-c2nccn2C)c1C#N (stereo not drawn) [SW209427]
Recombinant 15-PGDH [1]; [7]
  IC50: 1480 nM

## CCCCC(C)(C)[C@H](O)/C=C/[C@H]1[C@H](O)CC(=O)[C@@H]1C/C=C\CCCC(=O)O [dmPGE2, 16,16-dimethyl PGE2]
Bone marrow
  increase in colonies compared with SW033291 treated marrow, in words: slightly greater increase

## COc1ccc2c(c1)c(CC(=O)O)c(C)n2C(=O)c1ccc(Cl)cc1 [indomethacin, reference compound]
mice; with SW033291 10 mg/kg IP
  effect of co-treatment on the homing effect of SW033291: near completely blocked

## (−) SW209415
Recombinant 15-PGDH [1]; FIG. 135, read-out: IC50
  IC50: 164 nM
